{
  "source": "patent US9487479B2",
  "about": "“Small molecule inhibitors of N-terminus activation of the androgen receptor” (The University of British Columbia, priority 2008, dated 2016)",
  "key": {"LNCaP cells": {"tested_on": "LNCaP cells", "assay": "Androgen-dependent proliferation of LNCaP cells (BrdU incorporation)", "format": "cell-based, human", "settings": "5 μg/ml, 1 hr before R1881 0.1 nM, 3 days", "description": "BrdU incorporation was measured 3 days later to indicate changes in proliferation in response to androgen (see FIG. 3B)."}, "PSA mRNA": {"tested_on": "PSA mRNA", "assay": "Androgen-induced PSA mRNA levels in LNCaP cells (qRT-PCR)", "format": "cell-based, human", "settings": "10 μg/ml, 1 hour pretreatment, R1881 1 nM, 16 hours", "description": "Levels of PSA mRNA were measured by quantitative real-time (qRT)-PCR and normalized to levels of GAPDH mRNA (housekeeping gene). White bar: no R1881. Black bars: R1881 (1 nM). MNE: mean normalized expression. DMSO (no R1881) was arbitrarily set at 1.0 for each individual experiment. Bars represent the mean±SE from 3 separate experiments using triplicate technical samples from each experiment.\nPSA is an androgen-regulated gene containing several well-characterized androgen response elements (AREs) in the enhancer and promoter regions. Levels of PSA mRNA are induced by androgen by a mechanism dependent androgen receptor. To test if sintokamides would also block endogenous gene expression induced by androgen, levels of PSA mRNA were measured in response to the synthetic androgen R1881."}, "androgen receptor (AR)": {"target": "T1, androgen receptor (AR) (Homo sapiens, UniProt P10275, T878A)", "T1 construct": "endogenous in cells; host or cells: LNCaP human prostate cancer cells", "T1 sequence (P10275 1-920 T878A)": "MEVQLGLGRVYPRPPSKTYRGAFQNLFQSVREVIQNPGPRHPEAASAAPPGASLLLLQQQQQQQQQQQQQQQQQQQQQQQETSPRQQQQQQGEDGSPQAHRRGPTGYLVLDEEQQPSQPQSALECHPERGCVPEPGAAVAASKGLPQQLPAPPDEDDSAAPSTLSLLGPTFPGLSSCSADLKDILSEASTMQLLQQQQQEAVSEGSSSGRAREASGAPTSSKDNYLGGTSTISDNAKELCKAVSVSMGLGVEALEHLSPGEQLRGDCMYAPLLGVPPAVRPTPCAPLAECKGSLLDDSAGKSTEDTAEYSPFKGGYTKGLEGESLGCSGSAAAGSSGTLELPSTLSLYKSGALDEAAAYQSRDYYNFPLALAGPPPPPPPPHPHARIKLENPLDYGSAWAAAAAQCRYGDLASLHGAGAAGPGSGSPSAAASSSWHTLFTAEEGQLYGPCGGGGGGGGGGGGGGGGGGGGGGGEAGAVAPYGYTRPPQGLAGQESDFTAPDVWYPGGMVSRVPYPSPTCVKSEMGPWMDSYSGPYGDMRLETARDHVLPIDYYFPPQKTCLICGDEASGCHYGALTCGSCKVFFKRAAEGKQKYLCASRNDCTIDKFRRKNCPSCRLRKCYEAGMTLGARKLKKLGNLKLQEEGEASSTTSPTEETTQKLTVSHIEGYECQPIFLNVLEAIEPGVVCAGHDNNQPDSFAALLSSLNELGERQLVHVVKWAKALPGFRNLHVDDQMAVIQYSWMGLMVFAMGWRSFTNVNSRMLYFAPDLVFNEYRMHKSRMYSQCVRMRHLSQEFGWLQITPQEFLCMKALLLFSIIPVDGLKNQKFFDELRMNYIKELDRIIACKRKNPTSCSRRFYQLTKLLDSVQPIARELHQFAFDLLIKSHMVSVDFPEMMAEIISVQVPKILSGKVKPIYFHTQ", "assay": "PSA (6.1 kb)-luciferase reporter assay in LNCaP cells", "format": "cell-based", "settings": "5 μg/ml", "description": "White bars represent no steroid (ethanol control). Wherein glucocorticoid receptor (GR) and progesterone receptor (PR).\nThe cells were harvested 24 hours later and analyzed for luciferase activity. The data is normalized to protein that was measured using Bradford assay.\nSequence similarities of amino acids in the AR with related human steroid receptors (glucocorticoid receptor (GR) and progesterone receptor (PR)) are significant in some domains such as the DNA-binding-domain (DBD). Although the AR-NTD shares less than 15% homology with the PR and GR, these receptors do interact with some of the same proteins such as SRC-1 (steroid receptor coactivator-1). […] Cells were co-transfected with expression plasmids for full-length hGR and PRβ and the relative reporter (i.e., pGR-Luc or PRE-E1b-Luc reporters). Cells were then treated with ethanol vehicle, dexamethasone (GR), 4-pregnene-3,20 dione (progesterone) (PR) followed by measurement of luciferase activity.\nActivation of the endogenous AR was measured in LNCaP human prostate cancer cells by measuring an androgen-responsive reporter containing androgen response elements (AREs). The PSA (6.1 kb)-luciferase reporter gene construct contains several well-characterized AREs and is induced by androgen."}, "[1]": {"target": "T2, AR NTD-Gal4DBD chimera protein (Gal4DBD-AR1-558) (Homo sapiens, UniProt P10275)", "T2 construct": "co-transfected with the expression vector for Gal4DBD-AR1-558; expressed in transfected cells; host or cells: LNCaP cells", "T2 sequence (P10275 1-558)": "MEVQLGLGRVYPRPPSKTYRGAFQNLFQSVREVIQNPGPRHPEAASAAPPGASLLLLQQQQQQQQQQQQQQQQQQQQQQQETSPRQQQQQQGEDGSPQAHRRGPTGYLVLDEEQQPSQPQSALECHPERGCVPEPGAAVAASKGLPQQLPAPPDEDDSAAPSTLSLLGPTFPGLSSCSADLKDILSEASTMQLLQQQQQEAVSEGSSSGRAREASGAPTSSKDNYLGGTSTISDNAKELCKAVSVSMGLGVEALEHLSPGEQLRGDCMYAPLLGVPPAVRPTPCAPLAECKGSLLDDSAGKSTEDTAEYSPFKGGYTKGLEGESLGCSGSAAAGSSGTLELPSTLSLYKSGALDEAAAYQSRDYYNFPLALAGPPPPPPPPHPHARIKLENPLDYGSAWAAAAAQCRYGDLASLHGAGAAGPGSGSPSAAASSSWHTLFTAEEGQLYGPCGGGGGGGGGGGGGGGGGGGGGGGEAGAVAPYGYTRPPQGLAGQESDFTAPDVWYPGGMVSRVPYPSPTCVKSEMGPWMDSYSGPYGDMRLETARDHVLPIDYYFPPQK", "assay": "FSK-induced transactivation of the AR NTD (Gal4-luciferase reporter in LNCaP cells)", "format": "cell-based", "settings": "5 μg/ml, 1 hr pretreatment, FSK 50 μM for 24 h", "description": "Sintokamide A (CB3.1) (5 μg/ml) was tested for its ability to inhibit the AR NTD. LNCaP cells were co-transfected with the expression vector for Gal4DBD-AR1-558 and the complimentary 5XGal4UAS-luciferase reporter. Induction of this reporter by FSK is a measure of transactivation of the Gal4DBD-AR1-558 fusion protein (Sadar 1999 J. Biol. Chem. 274, 7777-7783).\nTo determine if CB3.1 blocked transactivation of the AR NTD, LNCaP cells were transfected with the plasmids for the AR NTD-Gal4DBD chimera protein and the Gal4-luciferase reporter and pretreated for 1 hr with CB3.1 (5 μg/ml) prior to addition of forskolin (FSK 50 μM) for an additional 24 h (see: Sadar et al. (1999) J. Biol. Chem. 274:7777-83)."}},
  "data": [
    {"smiles": "CCC(=O)N[C@H](C[C@H](C)C(Cl)(Cl)Cl)C(=O)N1C(=O)C=C(OC)[C@@H]1C[C@H](C)C(Cl)Cl", "note": "[CB3.1, Sintokamide A]", "values": [
      {"measurement": "androgen-induced proliferation (BrdU incorporation)", "setting": "LNCaP cells", "result": "reduced proliferation"},
      {"measurement": "inhibition of androgen-induced levels of PSA mRNA", "setting": "PSA mRNA", "result": "inhibit"},
      {"measurement": "inhibition of R1881 induction of PSA (6.1)-luciferase", "setting": "androgen receptor (AR); 1 hour pretreatment, R1881 1 nM, 24 hours", "result": "inhibition"},
      {"measurement": "AR activity measured with the PSA (6.1) luciferase reporter", "setting": "androgen receptor (AR); steroid 10 nM, 24 h", "result": "strongly inhibited"},
      {"measurement": "FSK-induced transactivation of the AR NTD", "setting": "[1]", "result": "reduced FSK-induced transactivation of the AR NTD to baseline levels"}
    ]}
  ]
}
